Experimental data from patent publication US10906977B2, “Enhancing the therapeutic activity of immune checkpoint inhibitor” (Maine Medical Center Research Institute, priority 2016, dated 2021).

Tested on: T-cell (Jurkat)
Assay: T-cell migration on denatured collagen type-IV (transwell)
Type: cell-based, human
Conditions: P2 1.0 ug/ml; FIG. 34
Protocol: Membranes of transwell migration chambers were coated with denatured collagen type-IV to mimic the altered basement membrane in tumor vessels. Left). T-cell (Jurkat) migration in the presence or absence of the cryptic collagen peptide P2 (1.0 ug/ml) and/or Mab XL313 and non-specific control antibody (50 μg/ml). Right). T-cell (Jurkat) migration in the presence or absence of Raw macrophage concentrated conditioned medium (CM) and/or Mab XL313 and non-specific control antibody (50 μg/ml). Data bars represent mean cell migration+SE from triplicate wells.

Sequence: CQGPRGDKGEC [Mab P-2]
- effect on T-cell migration: inhibitory effects
